Here are results for 2 compounds from patent US11000033B2, “Ketone or oxime compound, and herbicide” (NISSAN CHEMICAL CORPORATION, priority 2014, dated 2021).

Assay type in all cases: in vivo
Data set [1] concerns Amaranthus retroflexus. Kind of data set: Test Example 4: herbicidal effect by soil treatment (symbol N). As to conditions: application herbicide amount 320 g/ha. Put shortly: (§1)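 Seeds were sown in sterilized diluvial soil, covered with about 1.5 cm of soil, and the soil surface was sprayed with a water-diluted emulsion of the compound at a predetermined rate. Plants grew in a greenhouse at 25° C. to 30° C.; effects were scored visually 3 weeks after application.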

Data set [2] relates to Lolium multiflorum Lam. The data set can be described thus: Test Example 4: herbicidal effect by soil treatment (symbol K). Conditions: application herbicide amount 320 g/ha. Put shortly: as §1
In data set [3] the test system is Stellaria media. The data set can be described thus: Test Example 5: herbicidal effect by foliage application, plastic box (symbol P). Conditions: 320 g/ha, 3 weeks after application. The gist of the method:
(§2)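 Herbicide, formulated as an emulsion and diluted in water, is sprayed onto the aerial parts of 14-day seedlings. These were grown at 25° C. to 30° C. in sterilized diluvial soil; effects are graded after 3 weeks.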

Data set [4] deals with Lolium multiflorum Lam. The data set can be described thus: Test Example 5: herbicidal effect by foliage application, plastic box (symbol K). As to conditions: 320 g/ha, 3 weeks after application. Put shortly:
as §2

For data set [5], the system named is transplanted rice plant. Kind of data set: Test Example 1: effect on crop, application before weed generation in submerged conditions (symbol a). Conditions: application herbicide amount 320 g/ha. The gist of the method:
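Rice at 2.5 leaf stage transplanted into submerged soil (4 cm depth) sown with three weed species; herbicide applied before weed emergence.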

In data set [6] the test system is Galium spurium. The data set can be described thus: Test Example 4: herbicidal effect by soil treatment (symbol Q). As to conditions: application herbicide amount 320 g/ha. Put shortly: as §1
For data set [7], the system named is Digitaria ciliaris. The data set can be described thus: Test Example 5: herbicidal effect by foliage application, plastic box (symbol F). Conditions: 320 g/ha, 3 weeks after application. The gist of the method:
as §2

For data set [8], the system named is Abutilon theophrasti. Kind of data set: Test Example 5: herbicidal effect by foliage application, plastic box (symbol M). Conditions: 320 g/ha, 3 weeks after application. Put shortly:
as §2

Data set [9] concerns Chenopodium album. The data set can be described thus: Test Example 4: herbicidal effect by soil treatment (symbol O). Conditions: application herbicide amount 320 g/ha. Put shortly:
as §1

Data set [10] has as its system Alopecurus myosuroides. Kind of data set: Test Example 5: herbicidal effect by foliage application, plastic box (symbol J). As to conditions: 320 g/ha, 3 weeks after application. Put shortly:
as §2

In data set [11] the test system is Chenopodium album. Kind of data set: Test Example 5: herbicidal effect by foliage application, plastic box (symbol O). Conditions: 320 g/ha, 3 weeks after application. The gist of the method: as §2
In data set [12] the test system is directly sowed rice plant. The data set can be described thus: Test Example 3: effect on crop by foliage application, Wagner pot (symbol b). As to conditions: application herbicide amount 320 g/ha. Put shortly:
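Greenhouse culture at 25–30 °C of seeded rice, Cyperus difformis, Leptochloa chinensis and Echinochloa crus-galli var. crus-galli, in alluvial soil held under 0.1–0.5 cm of water in a Wagner pot.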

For data set [13], the system named is Veronica persica. The data set can be described thus: Test Example 4: herbicidal effect by soil treatment (symbol R). Conditions: application herbicide amount 320 g/ha. Put shortly: as §1
Data set [14] deals with Echinochloa crus-galli var. crus-galli. The data set can be described thus: Test Example 3: herbicidal effect by foliage application, Wagner pot (symbol H). Conditions: application herbicide amount 320 g/ha. The gist of the method:
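Steps: fill pot with alluvial soil; add water to 0.1–0.5 cm depth; sow weed and rice seed; grow 14 days at 25–30 °C; spray diluted emulsion over the leaves; rate effect after 3 weeks.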

Data set [15] has as its system beet. The data set can be described thus: Test Example 5: effect on crop by foliage application, plastic box (symbol f). Conditions: 320 g/ha, 3 weeks after application. Put shortly: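 In a plastic box 7 cm deep filled with sterilized diluvial soil, seeds of crops and weeds such as Digitaria ciliaris, Avena fatua and Amaranthus retroflexus are sown in spots and covered with about 1.5 cm of soil before greenhouse growth at 25–30° C.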

The test system of data set [16] is Digitaria ciliaris. Kind of data set: Test Example 4: herbicidal effect by soil treatment (symbol F). Conditions: application herbicide amount 320 g/ha. The gist of the method: as §1
The subject of data set [17] is Setaria viridis. The data set can be described thus: Test Example 4: herbicidal effect by soil treatment (symbol G). Conditions: application herbicide amount 320 g/ha. Put shortly:
as §1

Data set [18] relates to wheat. The data set can be described thus: Test Example 4: effect on crop by soil treatment (symbol e). As to conditions: application herbicide amount 320 g/ha. The gist of the method:
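Diluvial soil (sterilized) in boxes; seeds placed spot-wise alongside weed species; ~1.5 cm covering soil. Greenhouse, 25–30° C.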

As to `CON=C(C)CC1CC(O)=C(c2c(C)cc(-c3ccc(Cl)cc3Cl)cc2C)C1=O` (stereo not drawn) [6-088], the “Herbicidal effect grade, N: Amaranthus retroflexus” value in [1] is on record as 0 (Herbicidal ratio of 5% or lower (almost no effect)). In addition, in data set [2], the “Herbicidal effect grade, K: Lolium multiflorum Lam.” value was 5 (Herbicidal ratio of 90% or more (almost completely withered)). In addition, the “P: Stellaria media, herbicidal effect (criteria of Test Example 1)” value in [3] was 4 (Herbicidal ratio of 70% or higher and lower than 90%). The “K: Lolium multiflorum Lam., herbicidal effect (criteria of Test Example 1)” value in data set [4] was 5 (Herbicidal ratio of 90% or more (almost completely withered)). Besides, the “Effect grade on crop, a: transplanted rice plant” value in data set [5] was 3 (Herbicidal ratio of 40% or higher and lower than 70%). For the same compound, the “Herbicidal effect grade, Q: Galium spurium” value in data set [6] is 4 (Herbicidal ratio of 70% or higher and lower than 90%). Moreover, the “F: Digitaria ciliaris, herbicidal effect (criteria of Test Example 1)” value in [7] is listed as 5 (Herbicidal ratio of 90% or more (almost completely withered)). Also, the “M: Abutilon theophrasti, herbicidal effect (criteria of Test Example 1)” value in data set [8] is 3 (Herbicidal ratio of 40% or higher and lower than 70%). In addition, in [9], the “Herbicidal effect grade, O: Chenopodium album” value is given as 5 (Herbicidal ratio of 90% or more (almost completely withered)). Besides, the “J: Alopecurus myosuroides, herbicidal effect (criteria of Test Example 1)” value in [10] is recorded as 5 (Herbicidal ratio of 90% or more (almost completely withered)). Also, the “O: Chenopodium album, herbicidal effect (criteria of Test Example 1)” value in data set [11] is 5 (Herbicidal ratio of 90% or more (almost completely withered)). For the same compound, the “effect on crop b (directly sowed rice plant), grade 0-5” value in data set [12] is 5 (Herbicidal ratio of 90% or more (almost completely withered)). Further, in data set [13], the “Herbicidal effect grade, R: Veronica persica” value was 4 (Herbicidal ratio of 70% or higher and lower than 90%). Besides, the “herbicidal effect on H (Echinochloa crus-galli var. crus-galli), grade 0-5” value in [14] is listed as 5 (Herbicidal ratio of 90% or more (almost completely withered)). In data set [15], the “f: beet, effect on crop (criteria of Test Example 1)” value was 0 (Herbicidal ratio of 5% or lower (almost no effect)). Further, the “Herbicidal effect grade, F: Digitaria ciliaris” value in [16] is listed as 5 (Herbicidal ratio of 90% or more (almost completely withered)). Besides, the “Herbicidal effect grade, G: Setaria viridis” value in data set [17] is reported as 5 (Herbicidal ratio of 90% or more (almost completely withered)). Also, the “Effect on crop grade, e: wheat” value in data set [18] was 0 (Herbicidal ratio of 5% or lower (almost no effect)).

As to `CON=C(C)CC1CC(OC(=O)N2CCCC2)=C(c2c(C)cc(C)cc2OC)C1=O` (stereo not drawn) [6-110], the “Herbicidal effect grade, N: Amaranthus retroflexus” value in data set [1] is 0 (Herbicidal ratio of 5% or lower (almost no effect)). Further, in [2], the “Herbicidal effect grade, K: Lolium multiflorum Lam.” value was 3 (Herbicidal ratio of 40% or higher and lower than 70%). Also, the “P: Stellaria media, herbicidal effect (criteria of Test Example 1)” value in [3] was 1 (Herbicidal ratio of 5% or higher and lower than 20%). The “K: Lolium multiflorum Lam., herbicidal effect (criteria of Test Example 1)” value in data set [4] was 5 (Herbicidal ratio of 90% or more (almost completely withered)). Besides, the “Effect grade on crop, a: transplanted rice plant” value in data set [5] was 5 (Herbicidal ratio of 90% or more (almost completely withered)). The “Herbicidal effect grade, Q: Galium spurium” value in [6] is on record as 0 (Herbicidal ratio of 5% or lower (almost no effect)). Moreover, the “F: Digitaria ciliaris, herbicidal effect (criteria of Test Example 1)” value in data set [7] is given as 5 (Herbicidal ratio of 90% or more (almost completely withered)). Besides, the “M: Abutilon theophrasti, herbicidal effect (criteria of Test Example 1)” value in data set [8] is 4 (Herbicidal ratio of 70% or higher and lower than 90%). In addition, the “Herbicidal effect grade, O: Chenopodium album” value in data set [9] was 0 (Herbicidal ratio of 5% or lower (almost no effect)). The “J: Alopecurus myosuroides, herbicidal effect (criteria of Test Example 1)” value in data set [10] is on record as 5 (Herbicidal ratio of 90% or more (almost completely withered)). In [11], the “O: Chenopodium album, herbicidal effect (criteria of Test Example 1)” value is reported as 0 (Herbicidal ratio of 5% or lower (almost no effect)). The “effect on crop b (directly sowed rice plant), grade 0-5” value in data set [12] is given as 5 (Herbicidal ratio of 90% or more (almost completely withered)). Also, the “Herbicidal effect grade, R: Veronica persica” value in [13] is given as 0 (Herbicidal ratio of 5% or lower (almost no effect)). The “herbicidal effect on H (Echinochloa crus-galli var. crus-galli), grade 0-5” value in [14] is reported as 5 (Herbicidal ratio of 90% or more (almost completely withered)). For the same compound, in [15], the “f: beet, effect on crop (criteria of Test Example 1)” value is 0 (Herbicidal ratio of 5% or lower (almost no effect)). For the same compound, the “Herbicidal effect grade, F: Digitaria ciliaris” value in data set [16] is 0 (Herbicidal ratio of 5% or lower (almost no effect)). In addition, the “Herbicidal effect grade, G: Setaria viridis” value in data set [17] was 0 (Herbicidal ratio of 5% or lower (almost no effect)). Moreover, the “Effect on crop grade, e: wheat” value in data set [18] is on record as 0 (Herbicidal ratio of 5% or lower (almost no effect)).
